For eleven compounds, IC50 results are on record in patent US9187472B2 (AbbVie Inc., priority 2012, dated 2015).

The target in test [1] is NAMPT (Homo sapiens, UniProt P43490). The test can be described thus: TR-FRET Binding Assay of NAMPT with PRPP. The settings on record: with 200 μM PRPP and 2.5 mM ATP; 2 nM NAMPT, 2 nM probe, 16 hours equilibration. The method in brief: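 Compounds were mixed with 2 nM His-tagged NAMPT, 2 nM probe, 1 nM terbium anti-His antibody, 200 μM PRPP and 2.5 mM ATP in assay buffer with 2% DMSO, then left 16 hours to permit possible enzymatic processing of compounds before time-resolved FRET was measured.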
Sequence of NAMPT (P43490 whole entry): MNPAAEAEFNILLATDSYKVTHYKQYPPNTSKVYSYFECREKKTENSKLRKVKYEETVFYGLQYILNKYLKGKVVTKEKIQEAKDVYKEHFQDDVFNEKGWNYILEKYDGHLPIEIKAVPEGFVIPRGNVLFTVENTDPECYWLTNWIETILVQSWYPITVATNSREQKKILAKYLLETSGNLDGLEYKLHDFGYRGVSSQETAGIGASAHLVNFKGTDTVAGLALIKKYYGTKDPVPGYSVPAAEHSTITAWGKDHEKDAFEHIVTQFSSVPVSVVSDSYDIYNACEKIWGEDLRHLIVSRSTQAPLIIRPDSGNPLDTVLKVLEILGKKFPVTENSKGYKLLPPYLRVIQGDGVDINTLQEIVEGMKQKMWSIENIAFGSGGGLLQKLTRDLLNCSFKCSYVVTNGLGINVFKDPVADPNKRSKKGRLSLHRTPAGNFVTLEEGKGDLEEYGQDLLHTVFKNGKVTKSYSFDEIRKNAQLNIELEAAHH
(In general: Time-resolved FRET reads energy transfer from a long-lived donor to a nearby acceptor.)

The target in test [2] is NAMPT (human, recombinant, C-terminally His-tagged) (Homo sapiens, UniProt P43490). Briefly: Time-Resolved Fluorescence Resonance Energy Transfer (TR-FRET) Binding Assay of NAMPT. The settings on record: without substrates; 6.8 nM NAMPT, 200 nM probe, 3 hours equilibration. The method in brief:
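Compounds, diluted in half-log steps, are mixed with enzyme (6.8 nM), fluorescent probe (200 nM) and Tb-anti-His antibody (1 nM) in pH 7.5 HEPES buffer containing 10 mM MgCl2 and 1 mM DTT. Plates equilibrate 3 h at room temperature; normalized FRET ratios are fitted by four-parameter logistic regression for IC50.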

Test [3] relates to PC3 cells. Briefly: NAMPT Cell Proliferation Assay. Type of test: cell-based. The note with it: Homo sapiens, PC-3, 120 h, 5 days incubation, cell viability by Cell Titer Glo. The method in brief: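 Proliferation of PC3 cells treated 5 days with a 10-fold compound series (top 10 μM) was quantified by Cell Titer Glo luminescence; IC50s were fitted from percent inhibition.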
(In ATP-based viability assays light output follows the ATP content of the culture.)

pIC50: −log10 of the molar value.

Sequence of NAMPT (human, recombinant, C-terminally His-tagged) (P43490 whole entry): as above

The term pIC50 denotes the negative decadic logarithm of the IC50, by convention in mol/L. As to `O=C(NCc1ccn2ccnc2c1)c1ccc(C2CCN(C(=O)c3cccc(Cl)c3)C2)s1` (stereo not drawn) [Example 779, 5-[1-(3-chlorobenzoyl)pyrrolidin-3-yl]-N-(imidazo[1,2-a]pyridin-7-ylmethyl)thiophene-2-carboxamide], the values for the pIC50 in test [1], in test [2] and in test [3] were 9.22, 7.85 and 9.30, respectively.
For `O=C(NCc1ccn2ccnc2c1)c1ccc(C2CCN(C(=O)c3cccc(F)c3)C2)cc1` (stereo not drawn) [Example 591, 4-[1-(3-fluorobenzoyl)pyrrolidin-3-yl]-N-(imidazo[1,2-a]pyridin-7-ylmethyl)benzamide], in that order: 9.12, 6.86 and 7.71.
For `CC(C)OCCNC(=O)N(CC1CCOC1)c1ncc(C(=O)NCc2ccc3nccn3c2)s1` (stereo not drawn) [Example 157, N-(imidazo[1,2-a]pyridin-6-ylmethyl)-2-[{[2-(propan-2-yloxy)ethyl]carbamoyl}(tetrahydrofuran-3-ylmethyl)amino]-1,3-thiazole-5-carboxamide] the same measures were 8.96, 5.38 and 7.53.
Consider `O=C(NCc1ccn2ccnc2c1)c1ccc(C2CCN(C(=O)c3ccc(Cl)cc3)C2)s1` (stereo not drawn) [Example 770, 5-[1-(4-chlorobenzoyl)pyrrolidin-3-yl]-N-(imidazo[1,2-a]pyridin-7-ylmethyl)thiophene-2-carboxamide], for which the pIC50 was 9.13 in test [1], 7.41 in test [2] and 8.22 in test [3].
For `CC(C)(C)OC(=O)N1CCN(CCn2cc(-c3ccc(C(=O)NCc4ccn5ccnc5c4)s3)cn2)CC1` [Example 808, tert-butyl 4-[2-(4-{5-[(imidazo[1,2-a]pyridin-7-ylmethyl)carbamoyl]thiophen-2-yl}-1H-pyrazol-1-yl)ethyl]piperazine-1-carboxylate] the same measures were 9.25, 7.03 and 8.96.
For the compound `CC(C)C(=O)N1CCC(Oc2ccc(C(=O)NCc3ccc4nccn4c3)cc2)CC1` [Example 159, N-(imidazo[1,2-a]pyridin-6-ylmethyl)-4-{[1-(2-methylpropanoyl)piperidin-4-yl]oxy}benzamide], the pIC50 in test [1] was 8.67; in test [2], 5.60; in test [3] it was 6.63.
For `O=C(NCc1ccn2ccnc2c1)c1ccc(C2CCN(C(=O)CC(F)(F)F)C2)s1` (stereo not drawn) [Example 540, N-(imidazo[1,2-a]pyridin-7-ylmethyl)-5-[1-(3,3,3-trifluoropropanoyl)pyrrolidin-3-yl]thiophene-2-carboxamide], in that order: 9.52, 6.58 and 7.13.
With `CC(C)(C)OC(=O)N1CCC(c2ccc(NC(=O)NCc3ccn4ncnc4c3)cc2)CC1` [Example 565, tert-butyl 4-(4-{[([1,2,4]triazolo[1,5-a]pyridin-7-ylmethyl)carbamoyl]amino}phenyl)piperidine-1-carboxylate], the pIC50 in test [1] was 8.27; in test [2], 6.67; in test [3], 6.05.
For `O=C(NCc1ccn2ccnc2c1)c1cnc(N2C(=O)CC[C@H]2CO)s1` [Example 244, 2-[(2S)-2-(hydroxymethyl)-5-oxopyrrolidin-1-yl]-N-(imidazo[1,2-a]pyridin-7-ylmethyl)-1,3-thiazole-5-carboxamide], in that order: 8.77, under 5.00 and 5.15.
Regarding `O=C(NCc1ccn2ccnc2c1)c1ccc(C2CCN(C(=O)c3ccc(C(F)(F)F)cc3)CC2)cc1` [Example 705, N-(imidazo[1,2-a]pyridin-7-ylmethyl)-4-{1-[4-(trifluoromethyl)benzoyl]piperidin-4-yl}benzamide], the pIC50 in test [1] was 8.79; in test [2], 6.06; in test [3], 7.02.
In the case of `O=C(NCc1ccn2ccnc2c1)Nc1ccc(Oc2ccccc2)cc1` [Example 496, 1-(imidazo[1,2-a]pyridin-7-ylmethyl)-3-(4-phenoxyphenyl)urea], the pIC50 in test [1] is 8.94; in test [2], 6.70; in test [3], 5.15.
